Measurements taken from patent US20180008688A1, “METHOD AND COMPOSITIONS FOR ENHANCING IMMUNOTHERAPEUTIC TREATMENT OF A CANCER” (Augusta University Research Institute, Inc., priority 2016, published 2018).
Entries after “also recorded” stand apart in the source; their conditions may differ. Read-outs that look alike come from different tables or passages of the source.

Assays:
E.G7 tumors [1] = assay: E.G7 (EL4-OVA) tumors in wild-type hosts treated with oxaliplatin with or without nutlin-3a; assay type: in vivo, mouse; details: for Ly6C+/CD103+ dendritic cells in tumors: nutlin added to oxaliplatin
Method: (§1) In vivo tumor studies: The B16F10 and E.G7 (EL4-OVA) cell lines were obtained from ATCC. B16-OVA (B16F10 transfected with full-length chicken ovalbumin) clone MO4 was according to Falo et al. ((1995) Nat. Med. 1: 649-653). B16F10 cells expressing EGFP protein (B16-GFP cells) were derived using lentiviral transfection. Tumor implantation was performed as described (Sharma et al., (2007) J. Clin. Invest. 117: 2570-2582), using 1×10^5 cells for B16F10 and 1×10^6 cells for other cell lines (large inocula were used to ensure rapid tumor engraftment and immune suppression). Tumors were implanted bilaterally in each mouse as a control for reproducible implantation technique; replicate tumor diameters in a single mouse were typically within ±15%. Tumor volume was calculated from orthogonal diameters using the formula V=L×W^2×π/6. Mice received approved euthanasia when tumors reached a size of 300 mm^2 (product of orthogonal diameters); death was never used a planned endpoint in any study.
(§2) Tumor implantation was performed as described (Sharma et al., (2007) J. Clin. Invest. 117: 2570-2582). VO-OHpic was given at 10 mg/kg/day i.p., in 10% DMSO/PBS. Cyclophosphamide was given at 150 mg/kg i.p×1 dose; and oxaliplatin at 5 mg/kg i.p×1 dose. Nutlin-3a was administered daily at 10 mg/kg/day i.p. For checkpoint blockade, mice received anti-CTLA-4 plus a cocktail of antibodies against the PD-1 pathway. Vaccines and T cell adoptive transfer studies were performed as described (Sharma et al., (2015) Sci. Advances. 1: e1500845).
(§3) VO-OHpic was given at 10 mg/kg/day i.p., in 10% DMSO/PBS. Cyclophosphamide was given at 150 mg/kg i.p×1 dose. Oxaliplatin was given at 5 mg/kg i.p×1 dose. Nutlin-3a was dissolved at 2 mg/ml in 10% DMSO in buffered saline and administered daily at 10 mg/kg/day i.p. The 10 mg/kg/day dose was at the lower end of the parenteral dosing range described for mice (Zhang et al., (2011) Drug Meta. Dispos. 39: 15-21). For checkpoint blockade, mice received anti-CTLA-4 (clone 9D9, BioXcell) plus a cocktail of antibodies against the PD-1 pathway: anti-PD-L2, clone TY25 (Yamazaki et al., (2002) J. Immunol. 169: 5538-5545); anti-PD-1, clone J43 (Agata et al., (1996) Int. Immunol. 8: 765-772); and anti-PD-L1, clone MIH7 (Tsushima et al., (2003) Eur. J. Immunol. 33: 2773-2782). A cocktail was used in order to block the PD-1 pathway as completely as possible and thus minimize any peculiarities of a single blocking antibody.

B16F10 tumors [2] = assay: Established B16F10 tumors treated with dual checkpoint blockade with or without nutlin-3a; assay type: in vivo, mouse
Method: as §1
as §2, with “Vaccines and T cell adoptive transfer studies were performed as described (Sharma et al., (2015) Sci. Advances. 1: e1500845).” left out

B16F10 tumors [3] = assay type: in vivo; details: for anti-tumor effect: nutlin-3a added to CTX/VO-OHpic, FIG. 8B
Method: as §1, with “Tumors were implanted bilaterally in each mouse as a control for reproducible implantation technique; replicate tumor diameters in a single mouse were typically within ±15%.” left out
as §2
VO-OHpic/CTX, nutlin-3a, oxaliplatin and immunotherapy regimens: The vanadate compound VO-OHpic (Mak et al., (2010) J. Chem. Biol. 3: 157-163) inhibits PTEN activity, and this drug was used to destabilize PTEN+Tregs during chemotherapy. Like all of the available PTEN-inhibitors, VO-OHpic can also affect other phosphatases (Spinelli et al., (2015) Adv. Biol. Regul. 57: 102-111).
as §3, with “Nutlin-3a was dissolved at 2 mg/ml in 10% DMSO in buffered saline and administered daily at 10 mg/kg/day i.p. The 10 mg/kg/day dose was at the lower end of the parenteral dosing range described for mice (Zhang et al., (2011) Drug Meta. Dispos. 39: 15-21).” left out

E.G7 tumors [4] = assay: RIP-mOVA mice with E.G7 tumors treated with oxaliplatin with or without nutlin; assay type: in vivo; details: nutlin-3a added to oxaliplatin
Method: A classical model of ICD was first tested in which EL4-OVA lymphoma tumors (clone E.G7) are treated with oxaliplatin chemotherapy (Ghiringhelli et al., (2009) Nat. Med. 15: 1170-1178). E.G7 bears the same model antigen as B16-OVA (described with the RIP-mOVA model, above), so it was possible to test the effects of nutlin plus oxaliplatin in the RIP-mOVA model.

E.G7 tumors [5] = assay: E.G7/oxaliplatin model in LysMcre/p53-KO hosts with or without nutlin-3a; assay type: in vivo, mouse; details: mice lacking myeloid p53; FIG. 8D
Text: To test whether the relevant target of nutlin in tumors was specifically the p53 expression in myeloid dendritic cells, the E.G7/oxaliplatin model in LysMcre/p53-KO hosts was used. If mice lacked the relevant p53 in tumor-associated myeloid cells, then LysMcre/p53-KO mice should lose all anti-tumor effect of nutlin. For these studies, mice received congenically-marked OT-I cells to monitor whether T cells were still rescued by IL-12 in tumors.
Mice with a nuclear-localizing Cre-recombinase knock-in replacing one copy of the Lyz2 gene (Clausen et al., (1999) Transgenic Res. 8: 265-277) (strain 004781, Jax) were crossed as heterozygotes with homozygous p53^flox/flox mice (Marino et al., (2000) Genes Dev. 14: 994-1004) (strain 008462, Jax).
as §2

[6] = nutlin-3a added to VO-OHpic+CTX

SMILES: COc1ccc(C2=NC(c3ccc(Cl)cc3)C(c3ccc(Cl)cc3)N2C(=O)N2CCNC(=O)C2)c(OC(C)C)c1 (single isomer, unassigned; (-)) [nutlin-3a, (−)-4-(4,5-Bis(4-chlorophenyl)-2-(2-isopropoxy-4-methoxyphenyl)-4,5-dihydro-1H-imidazole-1-carbonyl)piperazin-2-one]
- Ly6C+/CD103+ dendritic cells in tumors (E.G7 tumors [1]): sustained expression
- Ly6C+/CD103+ dendritic cells in tumors (E.G7 tumors [1]; listed as nutlin): maintained long-term expression
- anti-tumor effect (E.G7 tumors [1]; nutlin-3a added to one dose of oxaliplatin, FIG. 8C): markedly prolonged the anti-tumor effect; also recorded: significantly increased the intensity and duration of the anti-tumor effect
- IL-12 production (E.G7 tumors [1]; nutlin-3a added to oxaliplatin): enhanced IL-12 production
- Ly6C+/CD103+ dendritic cells in tumors (B16F10 tumors [2]; nutlin added to checkpoint blockade, after 2 weeks of treatment): maintained large numbers
- anti-tumor effect (B16F10 tumors [2]; nutlin-3a 10 mg/kg/day i.p. added to dual checkpoint blockade, FIG. 8A): significantly enhanced and prolonged the effect of treatment
- anti-tumor effect (B16F10 tumors [3]): maintained a prolonged anti-tumor response
- anti-tumor effect (B16F10 tumors [3]; listed as Nutlin-3a): markedly prolonged and maintained the anti-tumor effect
- Ly6c+CD103+ dendritic cells in tumors (B16F10 tumors [3]; [6]): large population
- phospho-p53-Ser15 in dendritic cells (B16F10 tumors [3]; [6]): sustained elevation
- anti-tumor activity (E.G7 tumors [4]): significantly enhancing the anti-tumor activity
- autoimmune diabetes (E.G7 tumors [4]): protected the mice from diabetes
- anti-tumor effect of nutlin-3a (E.G7 tumors [5]): lost all anti-tumor effects; also recorded: lost all ability to enhance anti-tumor immunity
